Results published in patent US10406175B2, “Polymer-flavonoid conjugate and uses thereof” (Agency for Science, Technology and Research, priority 2014, dated 2019).

What was measured:
Type in all cases: cell-based, human
MMP-3 = assay: IL-1ß-induced MMP-3 expression in OA chondrocytes (RT-PCR and ELISA); conditions: IL-1ß 5 ng/ml, 24 h; EGCG 10 μM; HA or conjugate at two concentrations (FIGS. 3, 6)
Protocol: (§1) Cryopreserved human osteoarthritis chondrocytes (passage 1) were obtained from Cell Applications, INC. (USA). The cells were thawed and cultured in T75 cell culture flasks using complete growth medium (DMEM/F12 medium supplemented with 10% FBS and 1% penicillin/streptomycin). The cells were maintained at 37° C. and 5% CO2 atmosphere. Growth medium was replaced every 2-3 days and the cells were subcultured at 80% confluency. Only cells at passage 2 and 3 were used in this study. After expansion, the cells were re-differentiated in alginate beads according to previously established protocol with some modifications. Briefly, cells were trypsinized, pelleted and resuspended in 1.2% (w/v) sodium alginate in 0.15 M NaCl. The cell suspension was dispensed through a 210 needle dropwise into gelation solution (102 mM CaCl2, 10 mM HEPES and 0.0005% Tween 20, pH 7.4). Approximately 15 alginate beads were dispensed in 5 ml of gelation solution in a 6-wellplate. After gelation for 10 min, the gelation solution was removed and the alginate beads were washed twice with 5 ml of 0.15 M NaCl. Complete growth medium (5 ml) was then added and the cells were re-differentiated for 8 days in the alginate beads. Medium was changed every 2-3 days. After 8 days, the alginate beads were solubilized in dissolution solution (55 mM EDTA and 10 mM HEPES, pH 7.4).

MMP-1 = assay: IL-1ß-induced MMP-1 expression in OA chondrocytes (RT-PCR and ELISA); conditions: IL-1ß 5 ng/ml, 24 h; EGCG 10 μM; HA or conjugate at two concentrations (FIGS. 3, 6)
Protocol: as §1

IL-6 = assay: IL-1ß-induced IL-6 expression in OA chondrocytes (RT-PCR and ELISA); conditions: IL-1ß 5 ng/ml, 24 h; EGCG 10 μM; HA or conjugate at two concentrations (FIGS. 2, 5)
Protocol: as §1

TNF-α = assay: IL-1ß-induced TNF-α expression in OA chondrocytes (RT-PCR and ELISA); conditions: IL-1ß 5 ng/ml, 24 h; EGCG 10 μM; HA or conjugate at two concentrations (FIGS. 2, 5)
Protocol: as §1

MMP-13 = assay: IL-1ß-induced MMP-13 expression in OA chondrocytes (RT-PCR and ELISA); conditions: IL-1ß 5 ng/ml, 24 h; EGCG 10 μM; HA or conjugate at two concentrations (FIGS. 3, 6)
Protocol: as §1

O=C(O[C@@H]1Cc2c(O)cc(O)cc2O[C@@H]1c1cc(O)c(O)c(O)c1)c1cc(O)c(O)c(O)c1 [EGCG, epigallocatechin gallate]
effectively inhibited: downregulation of IL-1ß-induced MMP-3 gene and protein expression (MMP-3) | downregulation of IL-1ß-induced MMP-1 gene and protein expression (MMP-1) | downregulation of IL-1ß-induced IL-6 gene and protein expression (IL-6) | downregulation of IL-1ß-induced TNF-α gene and protein expression (TNF-α) | downregulation of IL-1ß-induced MMP-13 gene and protein expression (MMP-13)
